Measured values published in patent US6369109B1, “Betulinic acid and derivatives thereof useful for the treatment of neuroectodermal tumor” (Deutsches Krebsforschungszentrum Stiftung des Offentlichen …, priority 1998, dated 2002).
“Also recorded” adds a separate entry of the source.

Columns and labels:
Kelly cells = assay: Specific apoptosis induction by betulinic acid derivatives; type: cell-based; settings: FIG. 17C
Protocol: (§1) Quantification of DNA fragmentation was performed by FACS analysis of propidium iodide stained nuclei as described in Nicoletti et al, 1991, J. Immunol. Methods. 139: 271-279. Cells were analyzed for DNA content by flow. cytometry (FACScan, Becton Dickinson, Heidelberg, Germany) using CELLQuest software. Early apoptotic changes were identified by staining with biotinylated annexin V (Bender Med Systems, Vienna, Austria) following the manufacturer's instructions. Annexin V binds to exposed phosphatidylserine on the surface of apoptotic cells. Koopman et al, 1994, Blood. 84:1415-1420. Cells were analyzed by flow cytometry (FAC-Scan. Becton Dickinson) using CELLQuest software.
(§2) More specifically, betulinic acid, 28-acetyl-3-β-D-glucosyl betulin (“B10”), 3-β-28-hydroxylup-20(29)-en-3-yl-β-D-glucopyranoside (“B11”), 3-β-3-hydroxylup-20(29)-en-28-yl-β-D-glucopyranoside (“B12”), and 3-(β-D-glucopyranosyloxy)lup-20(29)-en-28-oic acid (“B13”) have been tested for specific apoptosis induction using the assays shown in Example 2. See, supra. […] (FIG. 17B).

IMR-5 cells = assay: as above; type: cell-based; settings: FIG. 17B
Protocol: as §1, §2

[1] = test system: melanoma cell line (MEL-2); settings: previously reported; cited from earlier work
[2] = test system: caspase-3, caspase-8 and PARP in cytosolic extracts from SHEP cells; assay: Cleavage of caspases in cytosolic extracts by cytochrome c or AIF; type: biochemical, human; settings: FIG. 11A
Protocol: For determination of nuclear fragmentation, nuclei (10^3/μl) were incubated with mitochondria (1 μg/μl) in buffer D (10 mM HEPES, pH 7.4, 50 mM NaCl, 2 mM MgCl2, 5 mM EGTA, 1 mM DDT, 2 mM ATP, 10 mM phosphocreatine, 50 μg/ml creatine kinase, 10 μM cytochalasin B) for 2 h at 37° C. Nuclei were stained with propidium iodide ([…]) and analyzed by flow cytometry. For determination of caspase activation, cytosolic extracts (2 μg/μl) were incubated with mitochondria (1 μg/μl), cytochrome c (0.1-100 μM) or AIF-containing mitochondrial supernatant (0.5 μg/μl) in buffer D for 2 h at 37° C. Partially purified AIF (cytochrome c-free) was prepared as previously described (0.5 mg/ml, Susin et al., 1997, J. Exp. Med. 186, 5-37; Susin et al., 1996, J. Exp. Med. 184, 1331-41). Proteins were separated by 15% SDS-PAGE and Western blot analysis was performed as described above. To confirm equal loading of mitochondrial protein, all Western blots were also developed with an antibody directed against a 60 kDa mitochondrial antigen (data not shown).
Cytosolic extracts from SHEP cells were incubated with 0.1-100 μM cytochrome c. Immunodetection of caspases-3, -8 and PARP was performed as described in FIG. 9A.
Cytosolic extracts from SHEP cells transfected with a neomycin resistance vector only (Nec) or bcl-2 were incubated with partially purified AIF. Immunodetection of caspases-3, -8 and PARP was performed as described for FIG. 9A.
For determination of nuclear fragmentation, nuclei (10^3/μl) were incubated with mitochondria (1 μg/μl) in buffer D (10 mM HEPES, pH 7.4, 50 mM NaCl, 2 mM MgCl2, 5 mM EGTA, 1 mM DDT, 2 mM ATP, 10 mM phosphocreatine, 50 μg/ml creatine kinase, 10 μM cytochalasin B) for 2 h at 37° C. Nuclei were stained with propidium iodide ([…]) and analyzed by flow cytometry (Susin et al., 1997 Exp. Cell Res. 236:397-403). For determination of caspase activation, cytosolic extracts (2 μg/μl) were incubated with mitochondria (1 μg/μl), cytochrome c (10 μM) or AIF-containing mitochondrial supernatant (0.5 μg/μl) in buffer D for 2 h at 37° C. […]

[3] = 0.1-100 μM (Ex. 3) or 10 μM (Ex. 4) cytochrome c, partially purified AIF or AIF-containing supernatant, 11B, 16B

Molecule | apoptotic activity compared to betulinic acid (Kelly cells) | apoptotic activity compared to betulinic acid (IMR-5 cells) | also measured
C=C(C)C1CCC2(COC(C)=O)CCC3(C)C(CCC4C5(C)CCC(OC6OC(CO)C(O)C(O)C6O)C(C)(C)C5CCC43C)C12 [B10, 3β-28-(acetyloxy)lup-20(29)-en-3-yl-β-D-glucopyranoside] | at least as high as betulinic acid | enhanced apoptotic activity | –
C=C(C)[C@@H]1CC[C@]2(CO)CC[C@]3(C)[C@H](CC[C@@H]4[C@@]5(C)CC[C@H](O[C@@H]6O[C@H](CO)[C@@H](O)[C@H](O)[C@H]6O)C(C)(C)[C@@H]5CC[C@]43C)[C@@H]12 [B11, 3-β-28-hydroxylup-20(29)-en-3-yl-β-D-glucopyranoside] | at least as high as betulinic acid | about the same activity as betulinic acid | –
C=C(C)C1CCC2(COC3OC(CO)C(O)C(O)C3O)CCC3(C)C(CCC4C5(C)CCC(O)C(C)(C)C5CCC43C)C12 [B12, 3-β-3-hydroxylup-20(29)-en-28-yl-β-D-glucopyranoside] | at least as high as betulinic acid | enhanced apoptotic activity | –
C=C(C)C1CCC2(C(=O)O)CCC3(C)C(CCC4C5(C)CCC(OC6OC(CO)C(O)C(O)C6O)C(C)(C)C5CCC43C)C12 [B13, 3-(β-D-glucopyranosyloxy)lup-20(29)-en-28-oic acid] | at least as high as betulinic acid | enhanced apoptotic activity | –
C=C(C)[C@@H]1CC[C@]2(C(=O)O)CC[C@]3(C)[C@H](CC[C@@H]4[C@@]5(C)CC[C@H](O)C(C)(C)[C@@H]5CC[C@]43C)[C@@H]12 [betulinic acid, 3β-3-hydroxylup-20(29)-en-28-oic acid] | – | – | cytotoxicity [1]: exert cytotoxicity
cytochrome c | – | – | cleavage of caspase-3 in cytosolic extracts [2, 3]: triggered the proteolytic processing of caspase-3 to its active subunits; also recorded: resulted in the processing of caspase-3 and PARP; cleavage of caspase-8 in cytosolic extracts [2, 3]: did not induce caspase-8 cleavage; also recorded: did not induce caspase-8 activation; cleavage of PARP in cytosolic extracts ([2]; 0.1-100 μM cytochrome c): caused caspase-mediated cleavage of PARP
